# Assay results reported in patent US20240368209A1, “GEMCITABINE ANTICANCER DERIVATIVE AND ANTICANCER PHARMACEUTICAL USE” (ASCENTAWITS PHARMACEUTICALS, LTD., priority 2021, published 2024).
# Values joined by “and” are separate entries in the source; they are usually repeats but may differ in a detail not shown here. Identical values can stand only once. Like-named read-outs stand apart in the source and are kept apart here.
# How the values were obtained:
# [1] = Metabolic stability in monkey liver microsomes; assay type: in vitro ADME
# Protocol: (§1) Main solutions were prepared according to Table 9 below:
# (§2) (II) Two Separate Experiments were Performed • a) With cofactor (NADPH): 25 μL of 10 mM NADPH was added to the culture broth. The final concentration of liver microsomes was 0.5 mg/mL, and the final concentration of NADPH was 1 mM. • b) Without cofactor (NADPH): 25 μL of 100 mM phosphate buffer was added. The final concentration of liver microsomes was 0.5 mg/mL. The mixture was preheated at 37° C. for 10 minutes. (III) 25 μL of […] control compound or test compound solution was added to start the reaction. […] The final concentrations of the test compound and control compound were both 1 μM. The culture broth was cultured in water at 37° C. (IV) Aliquots of 30 μL were collected from the reaction solution at 0.5, 5, 15, 30, and 60 minutes, respectively. 5 volumes of cold acetonitrile and IS (internal standard, containing 100 nM of alprazolam, 200 nM of caffeine, and 100 nM of tolylbutanamide) were added to stop the reaction. […] 100 μL of supernatant was taken and mixed with 100 μL of ultrapure water, equally divided and analyzed with LC-MS/MS.
# (§3) All calculations were conducted using Microsoft Excel. The peak area was determined from the extracted ion chromatogram.
# (§4) [formula] [formula] [formula] • wherein, QH is the hepatic blood flow (mL/min/kg) in Table 10, and fub is the fraction of drug unbound in plasma, and assumed as 1.
# [2] = Plasma stability in rat plasma; settings: rat, plasma
# Protocol: 1 mM working solution of the test compound was prepared in DMSO. 1 mM working solution of propantheline was prepared in acetonitrile. 1 mM working solution of lovastatin (mevinolin) was prepared in DMSO. Propantheline was used as a positive control for human, monkey, dog, and mouse plasma stability tests. Lovastatin was a positive control for rat plasma stability test.
# • A. 398 μL of plasma per well was added to the culture plate, and the plate was preheated at 37° C. for 15 minutes. • B. After preincubation, 2 μL of working solution (test solution or control solution) was added to the 398 μL plasma mentioned above, resulting in a final concentration of 5 μM. The final concentration of organic solvents was 0.5%. The test was conducted in duplicate. • C. The reaction sample was incubated at 37° C. • D. 50 μL was extracted from the reaction sample at 0, 15, 30, 60, and 120 minutes, respectively. […] 100 μL of supernatant was taken and transferred to a new plate. The supernatant was diluted with ultrapure water according to the LC-MS signal response and peak shape.
# Samples were analyzed with LC-MS/MS. All calculations were conducted using Microsoft Excel. The peak area ratio was determined from the extracted ion chromatogram. • (1) The percentage of the remaining compound at each time point was calculated with the following formula: […]
# wherein the slope value k was determined by linear regression of the natural logarithm of the remaining percentage of the parent drug vs. incubation time curve.
# H460 cancer cells = assay: Inhibition of H460 cancer cells in the presence or absence of AKR1C3 inhibitor AST-3021 (section 2.1); assay type: cell-based, human; settings: AST-3021 3 μM, read-out: IC50 (nmol/L) AST-3021 added
# Protocol: The experimental scheme was as follows: • 1) H460 cell suspension was added to a 96-well plate with 100 μL per well at a cell density of 2000/well. • 2) Cells were incubated in an incubator of 37° C., 5% CO2 overnight. • 3) Compound treatment
# Combined administration: 24 hours after cell plating, 98 μL of growth medium per well was added. 1 μL of AST-3021 was added to each well (final concentration 3 μM), and the plate was shaken gently to ensure even mixing, and then placed into an incubator; after 2 hours, 1 μL of the test compound at different concentrations was added, and the plate was shaken gently to ensure even mixing, and then placed into an incubator of 37° C., 5% CO2.
# Administration of the drug alone: 24 hours after cell plating, 99 μL of growth medium per well was added.
# In order to further verify that the compound was activated specifically by human AKR1C3 (aldosterone reductase family 1 member C3), the compound was added following the pretreatment of cells with the specific AKR1C3 enzyme inhibitor AST-3021 (3 μM), and the effect of the presence of AST-3021 on the proliferation of H460 cancer cells was tested
# IC50 data of inhibitory effect of the compounds gemcitabine and H11 on H460 cancer cells in the presence or absence of the AKR1C3 inhibitor AST-3021 is shown in Table 2 and Table 3.
# [3] = Metabolic stability in dog liver microsomes; assay type: in vitro ADME
# Protocol: as §1, §2, §3, §4
compound,measurement,setting,value
CC(C)NP(=O)(OCc1ccc([N+](=O)[O-])c(Oc2ccc(-c3ccc(F)cc3)c(F)c2)c1)OCC1OC(C2N=CC(N)=NC2=O)C(F)(F)C1O (stereo not shown) [Compound H11],Hepatic Extraction Ratio (ER),[1],0.88
same,Predicted Hepatic CLH,[1],38.81 mL/min/kg
same,clearance and stability in liver microsomes (in words),[1],high clearance and poor stability
same,Remaining percentage (%),"[1]; NADPH added, 0.5 minutes, 1 μM",100.00%
same,Remaining percentage (%),"[1]; NADPH added, 5 minutes",46.01%
same,Remaining percentage (%),"[1]; NADPH added, 15 minutes",13.27%
same,Remaining percentage (%),"[1]; NADPH added, 30 minutes",0.59%
same,Remaining percentage (%),"[1]; NADPH added, 60 minutes",0.09%
same,Remaining percentage (%),"[1]; NADPH not added, 0.5 minutes",100.00%
same,Remaining percentage (%),"[1]; NADPH not added, 60 minutes",105.87%
same,half-life at 1 μM,"[1]; monkey, read-out: In vitro half-life t1/2",5.06 min
same,microsomal CLint at 1 μM,"[1]; monkey, read-out: In vitro intrinsic clearance CLint",275 µL/min/mg
same,CLint scaled at 1 μM,"[1]; monkey, read-out: Scale-up CLint",330 mL/min/kg
same,t1/2 (min),[2],∞
same,Remaining percentage (%),"[2]; 0 h, 5 μM",100.00%
same,Remaining percentage (%),"[2]; 0.25 h, 5 µM",108.59%
same,Remaining percentage (%),"[2]; 0.5 h, 5 µM",105.39%
same,Remaining percentage (%),"[2]; 1 h, 5 µM",100.74%
same,Remaining percentage (%),"[2]; 2 h, 5 µM",109.53%
same,IC50,H460 cancer cells; H460,1470 nmol/L and 2350 nmol/L
same,IC50,"H460 cancer cells; Homo sapiens, NCI-H460, H460",2940 nmol/L
same,Hepatic Extraction Ratio (ER),[3],0.68
same,Predicted Hepatic CLH,[3],21.21 mL/min/kg
same,clearance and stability in liver microsomes (in words),[3],medium clearances and certain stability
same,Remaining percentage (%),"[3]; NADPH added, 0.5 minutes, 1 μM",100.00%
same,Remaining percentage (%),"[3]; NADPH added, 5 minutes",90.20%
same,Remaining percentage (%),"[3]; NADPH added, 15 minutes",71.99%
same,Remaining percentage (%),"[3]; NADPH added, 30 minutes",52.53%
same,Remaining percentage (%),"[3]; NADPH added, 60 minutes",32.12%
same,Remaining percentage (%),"[3]; NADPH not added, 0.5 minutes",100.00%
same,Remaining percentage (%),"[3]; NADPH not added, 60 minutes",92.14%
same,half-life at 1 μM,"[3]; dog, read-out: In vitro half-life t1/2",36.3 min
same,microsomal CLint at 1 μM,"[3]; dog, read-out: In vitro intrinsic clearance CLint",38.2 µL/min/mg
same,CLint scaled at 1 μM,[3]; read-out: Scale-up CLint,67.2 mL/min/kg
